Consider six molecules from paper PMC7690921, “Synthesis and Biological Evaluation of Analogues of Butyrolactone I as PTP1B Inhibitors” (Marine Drugs, 2020).

One data set has as its target T1, PTP1B (Homo sapiens, UniProt P18031).
T1 sequence (P18031 1-435): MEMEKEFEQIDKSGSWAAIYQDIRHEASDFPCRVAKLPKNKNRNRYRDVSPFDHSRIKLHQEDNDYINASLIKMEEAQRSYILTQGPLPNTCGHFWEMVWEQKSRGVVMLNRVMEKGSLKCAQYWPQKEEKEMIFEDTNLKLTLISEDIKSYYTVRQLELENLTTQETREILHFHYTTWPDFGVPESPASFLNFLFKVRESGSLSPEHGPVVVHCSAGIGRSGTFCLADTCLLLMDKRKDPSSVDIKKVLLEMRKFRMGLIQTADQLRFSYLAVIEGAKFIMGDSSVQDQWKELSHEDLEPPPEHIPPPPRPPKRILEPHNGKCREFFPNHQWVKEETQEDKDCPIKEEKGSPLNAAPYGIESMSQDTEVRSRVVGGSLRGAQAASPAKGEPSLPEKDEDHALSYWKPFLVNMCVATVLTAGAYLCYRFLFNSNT
Nature of the data set: PTP1B inhibitory assay (pNPP substrate). In kind it is biochemical. The note with it: for pIC50: pNPP 1 mM, 37 °C, Mean ± SD (n = 4), read-out: IC50 against PTP1B. As to the method:
The tested compounds at designated concentrations were solubilized in DMSO, and 2 μL samples was added to 96-well clear polystyrene plate. […] Then, 78 μL of an assay buffer (25 mM Hepes, 150 mM sodium chloride (NaCl), 0.1% bovine serum albumin (BSA), 3 mM dithiothreitol, 1 mM ethylenediaminetetraacetic acid) and 10 μL of the PTP1B (10 μg/mL) was added and incubated for 10 min at 37 °C. The screening was initiated by adding 10 μL p-nitrophenyl phosphate (pNPP), and the catalysis of pNPP (1 mM) was continuously monitored on SpectraMax 340 microplate reader (Molecular Devices, Sunnyvale, CA, USA) at 405 nm for 20 min at 37 °C. The slope of the linear portion of the kinetic curve generated from each well was used to determine the activity of PTP1B. The inhibition effect of the compound was represented by the percentage of the slope of the linear portion of its kinetic curve relative to that of the negative control (DMSO). The IC50 was calculated with Prism 8 software (Graphpad, San Diego, CA, USA) from the non-linear curve fitting of the percentage of inhibition (%inhibition) versus the inhibitor concentration [I] by using the following equation: %Inhibition = 100/(1 + [IC50/[I]] ^k), where k is the Hill coefficient.

In a further data set the test system is IR HepG2 cells. Nature of the data set: Glucose consumed in insulin resistance model of HepG2 cells. Particulars: high glucose and high insulin stimulated HepG2; 24 h treatment. In kind it is cell-based. As to the method:
HepG2 cells (Cell Bank of Chinese Academy of Sciences, Shanghai, China) were seeded in 96-well plates in normal Dulbecco’s Modified Eagle’ Medium (DMEM, 5.6 mM glucose) supplemented with 10% fetal bovine serum (FBS). The density of the cells in each plate was 1 × 10^4 cells/mL. The original medium was removed when the cells became adherent. For the control group, the medium was replaced with […]. The model of insulin resistance was established by stimulation with high glucose DMEM (30 mM glucose) with 10^−7 mol/L insulin for 48 h. Then, the cells were treated with drug-free or drug-containing DMEM (5.6 mM glucose) containing 0.2% BSA and […] 1 × 10^−9 mol/L insulin for 24 h. Glucose consumption was detected with the glucose oxidase method using a glucose assay kit (Cat#BC2500, Solarbio, Beijing, China).

For another data set, the system named is RIN-m5f cell line. Nature of the data set: Cell proliferation assay (CCK-8), RIN-m5f. The note with it: CCK-8, 48 h. Format: cell-based. As to the method: The cytotoxic effect of the synthesized butenolides on RIN-m5f (CRL-11605, American Type Culture Collection, Manassas, VA, USA) and HepG2 cells was determined with a Cell Counting Kit 8 (CCK-8) kit (Dojindo, Tokyo, Japan). Cells were seeded into 96-well plates in DMEM with 10% FBS in a volume of 100 µL per well and cultured overnight at 37 °C. The density of the cells in each plate was 1 × 10^4 cells/mL. According to the manufacturer’s protocol, after treatment with DMSO or varying concentrations of BLs for 48 h, 10 µL of CCK-8 solution was added to each well and cells were incubated for 2 h at 37 °C. Measure the absorbance at 450 nm of each well on a SpectraMax 340 microplate reader.

On the set-up of data set [1]: method as in doi:10.1007/s00044-013-0659-4. The note with it: read-out: IC50 antioxidant activities; cited from earlier work.
In the next data set the target is α-glucosidase. On the set-up: method as in earlier work. The note with it: cited from earlier work.

pIC50: −log10 of the molar value.

`CC(C)=CCc1cc(C2OC(=O)C(O)=C2c2ccc(O)cc2)ccc1O` (stereo not drawn) [BL-2]: the negative logarithm of the IC50 (pIC50) at PTP1B is 3.87.
As to `CC(C)=CCc1cc(C2OC(=O)C(O)=C2c2ccc(O)cc2)ccc1OCc1ccccc1` (stereo not drawn) [BL-3], the “hypoglycemic effect (glucose consumed / glucose uptake) in IR HepG2 cells” value in the data set with IR HepG2 cells is on record as “significant hypoglycemic effect”. Also, the “cytotoxicity to RIN-m5f cell line (proliferation)” value (“cytotoxicity to RIN-m5f cell line” below) in the data set with RIN-m5f cell line is listed as “did not affect the proliferation”. In addition, at PTP1B, the “PTP1B inhibitory activity (in words)” value is reported as “strong PTP1B inhibitory activity”.
As to `COC(=O)C1(c2ccc(OCc3ccccc3)cc2)OC(=O)C(O)=C1c1ccc(O)cc1` (stereo not drawn) [BL-4], on PTP1B, the “PTP1B inhibitory activity (in words)” value is “strong PTP1B inhibitory activity” and the pIC50 is 4.54.
Turning to `O=C1OC(Cc2ccc(OCc3ccccc3)cc2)C(c2ccc(O)cc2)=C1O` (stereo not drawn) [BL-5], in the data set with IR HepG2 cells, the “hypoglycemic effect (glucose consumed / glucose uptake) in IR HepG2 cells” value is “significant hypoglycemic effect”. Further, in the data set with RIN-m5f cell line, the “cytotoxicity to RIN-m5f cell line” value is “did not affect the proliferation”. In addition, the “PTP1B inhibitory activity (in words)” value at PTP1B is “strong PTP1B inhibitory activity”.
As to `CC(C)=CCc1cc(CC2OC(=O)C(O)=C2c2ccc(O)cc2)ccc1OCc1ccccc1` (stereo not drawn) [BL-6], the “hypoglycemic effect (glucose consumed / glucose uptake) in IR HepG2 cells” value in the data set on IR HepG2 cells is given as “did not improve the glucose uptake”. Moreover, the “cytotoxicity to RIN-m5f cell line” value in the data set on RIN-m5f cell line is reported as “significant cytotoxicity”. Further, on PTP1B, the “PTP1B inhibitory activity (in words)” value is on record as “strong PTP1B inhibitory activity” and the negative logarithm of the IC50 (pIC50) was 4.77.
`COC(=O)[C@]1(Cc2ccc(O)c(CC=C(C)C)c2)OC(=O)C(O)=C1c1ccc(O)cc1` [Butyrolactone I]: the pIC50 in data set [1] is 4.29; on α-glucosidase, 4.28.
